Source: US9364438B2, “Process for producing solid particles” (Takeda Pharmaceutical Company Limited, priority 2012, dated 2016)

Experiment: Microscopic observation of precipitated resatorvid crystals (poor solvent crystallization)
Assay type: physicochemical
Conditions: microscope
Procedure: Resatorvid (10 mg) was dissolved in methanol (0.5 mL) to prepare a methanol solution of resatorvid. The solution was added dropwise to water (5 mL) for injection with stirring at 600 rpm to allow precipitation of resatorvid crystal. The crystal was recovered, and vacuum dried at 50° C. for 24 hr. The obtained crystal was observed under a microscope.
In the same manner as in Comparative Example 1 except that water for injection containing nanobubbles produced under the above-mentioned conditions was used instead of water for injection, resatorvid crystal was obtained. The obtained crystal was observed under a microscope.
Resatorvid (10 mg) was dissolved in methanol (0.5 mL) to prepare a methanol solution of resatorvid. Polysorbate 80 (2 mg) was dissolved in water for injection (10 mL) to prepare aqueous polysorbate 80 solution. The aforementioned resatorvid solution (0.5 mL) was added dropwise to water (10 mL) for injection with stirring at 600 rpm to allow precipitation of resatorvid crystal. The crystal was recovered, and vacuum dried at 50° C. for 24 hr. The obtained crystal was observed under a microscope.
In the same manner as in Comparative Example 2 except that water for injection containing nanobubbles produced under the above-mentioned conditions was used instead of water for injection, resatorvid crystal was obtained. The obtained crystal was observed under a microscope.

SMILES | average maximum length of each crystal particle (poor solvent aqueous polysorbate 80 nanobubble solution, compared with conventional aqueous polysorbate 80 solution (Comparative Example 2)) | average maximum length of each crystal particle (poor solvent nanobubble water, compared with conventional water for injection (Comparative Example 1), FIG. 1 vs FIG. 2)
CCOC(=O)C1=CCCC[C@H]1S(=O)(=O)Nc1ccc(F)cc1Cl [Example 2, ethyl (6R)-6-[(2-chloro-4-fluoroanilino)sulfonyl]-1-cyclohexene-1-carboxylate] | smaller average maximum length | 
CCOC(=O)C1=CCCC[C@H]1S(=O)(=O)Nc1ccc(F)cc1Cl [Example 1, ethyl (6R)-6-[(2-chloro-4-fluoroanilino)sulfonyl]-1-cyclohexene-1-carboxylate] |  | smaller average maximum length
